# Test results as given in patent publication US12509446B2, “FYN and VEGFR2 kinase inhibitors” (ROTTAPHARM BIOTECH S.R.L., priority 2019, dated 2025).
# What was measured:
# Fyn = Fyn (Homo sapiens (Human), UniProt P06241); assay: Z′-LYTE in vitro Fyn kinase activity assay; type: biochemical; details: ATP 50 μM; read-out: FYN KINASE INHIBITION IC50
# Method in brief: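 Z′-LYTE FRET format with full-length active Fyn in 50 mM Hepes pH 7.5, 10 mM MgCl2, 1 mM EGTA, 0.01% Brij-35, 1% DMSO final; 60 minutes at 25° C. Percent phosphorylation from 0% and 100% phosphorylation controls; IC50 by non-linear curve fitting of percent inhibition.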
# VEGFR2 = VEGFR2 (Homo sapiens (Human), UniProt P35968); assay: In vitro VEGFR2 kinase activity assay (Eurofins Cerep); type: biochemical; details: read-out: VEGFR2 KINASE INHIBITION IC50
# VEGFR2, sequence (P35968 20-1356): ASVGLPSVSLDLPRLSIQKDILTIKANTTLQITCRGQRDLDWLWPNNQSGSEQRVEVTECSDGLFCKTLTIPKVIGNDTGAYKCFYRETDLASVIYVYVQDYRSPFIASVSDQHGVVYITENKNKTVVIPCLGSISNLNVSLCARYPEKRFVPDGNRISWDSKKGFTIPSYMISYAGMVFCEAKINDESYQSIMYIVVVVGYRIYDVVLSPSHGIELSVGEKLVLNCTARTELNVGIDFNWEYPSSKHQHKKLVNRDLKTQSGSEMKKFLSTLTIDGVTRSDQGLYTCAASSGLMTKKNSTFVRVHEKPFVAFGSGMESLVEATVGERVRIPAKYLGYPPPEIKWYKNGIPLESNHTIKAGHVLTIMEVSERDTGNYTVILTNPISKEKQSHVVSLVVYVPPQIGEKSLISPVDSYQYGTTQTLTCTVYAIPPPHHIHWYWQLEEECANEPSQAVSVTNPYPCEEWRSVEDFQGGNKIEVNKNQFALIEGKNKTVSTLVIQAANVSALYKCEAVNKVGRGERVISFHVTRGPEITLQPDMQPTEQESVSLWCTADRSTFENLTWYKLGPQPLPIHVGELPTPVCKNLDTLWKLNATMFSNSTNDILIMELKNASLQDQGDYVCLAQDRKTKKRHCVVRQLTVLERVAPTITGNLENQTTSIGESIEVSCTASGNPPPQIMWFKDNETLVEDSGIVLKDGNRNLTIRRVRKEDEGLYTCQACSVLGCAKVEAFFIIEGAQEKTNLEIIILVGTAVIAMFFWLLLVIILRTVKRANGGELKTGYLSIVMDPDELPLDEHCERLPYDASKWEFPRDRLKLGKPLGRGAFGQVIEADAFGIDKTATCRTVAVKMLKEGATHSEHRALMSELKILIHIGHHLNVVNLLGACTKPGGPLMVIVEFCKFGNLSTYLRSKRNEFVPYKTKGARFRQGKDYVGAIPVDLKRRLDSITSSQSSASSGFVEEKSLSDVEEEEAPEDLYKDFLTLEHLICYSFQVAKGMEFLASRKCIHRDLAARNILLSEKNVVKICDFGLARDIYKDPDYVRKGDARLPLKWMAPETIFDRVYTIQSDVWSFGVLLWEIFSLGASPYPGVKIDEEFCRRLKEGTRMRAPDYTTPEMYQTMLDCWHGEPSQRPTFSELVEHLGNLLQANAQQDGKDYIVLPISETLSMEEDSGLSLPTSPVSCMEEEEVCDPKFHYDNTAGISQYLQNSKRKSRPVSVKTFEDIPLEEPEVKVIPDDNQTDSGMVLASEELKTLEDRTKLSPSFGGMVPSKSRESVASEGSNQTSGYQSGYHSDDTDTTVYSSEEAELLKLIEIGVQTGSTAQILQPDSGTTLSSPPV
# Method in brief: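 Contract biochemical kinase assay on human VEGFR2 with inhibitors at 10^−8 to 10^−5 M final (some re-tested from 10^−9 M). Activity expressed as percent of no-compound control; IC50 by non-linear regression of mean replicate inhibition curves.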
# NF-kB = assay: Gene reporter (GR) assay, NF-kB activation after TNFα in JB6 Cl 41-5a (P+) cells; type: cell-based, murine; details: Mus musculus, JB6 Cl 41-5a, TNFα 2 ng/ml, non toxic concentrations; read-out: Gene reporter (GR) inhibition IC50
# Method in brief: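 Murine JB6 Cl 41-5a (P+) cells stably carrying an NF-kB-RE luc2P reporter were pre-treated with compound for 1 h, then stimulated with 2 ng/ml TNFα for 4 h. Luciferase read-out with a paired viability read; quadruplicates.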
# IL-1β = assay: Gene expression in rat articular chondrocytes under IL-1β stimulation, IL-1β; type: cell-based; details: for IL-1β gene expression, percentage of inhibitory effect at the highest non toxic concentration: 6 h; for IC50: Rattus norvegicus, Chondrocyte, 6 h incubation
# Method: (§1) For gene expression analysis, 10 days after plating, the medium was changed and substituted with DMEM GlutaMAX I 0.4% to synchronize the cells. The cells were then co-treated in DMEM GlutaMAX I 0.4% with different concentrations of the test compounds and […] at a final concentration of 2 ng/ml for 6 h and 24 h. The test compound concentrations used have been chosen on the basis of the toxicity data.
# (§2) At the end of the incubation, the supernatant was discarded, the cell were washed with cold PBS1X and scraped with 200 μl of RNA lysis buffer 1X (Nucleic Acid Purification Lysis Solution, Applied Biosystems).
# (§3) Total RNA was purified using ABI Prism™ 6100 Nucleic Acid PrepStation (Applied Biosystems) following manufacturer's instructions.
# (§4) Total RNA was retrotranscribed using the High-Capacity cDNA Archive Kit (Applied Biosystems-Thermo Fisher Scientific) following manufacturer's instructions.
# (§5) The specific probes and primers for RealTime PCR were from Applied Biosystems (Thermo Fisher Scientific) as Assays-on-Demand™, while the probe and primers for the endogenous control 18S was a PDAR (Pre-Developed TaqMan® Assay Reagents—Applied Biosystems-Thermo Fisher Scientific).
# (§6) The assays were designed to amplify target cDNA without amplifying genomic DNA.
# (§7) Gene expression analysis for IL-1β, IL-6 and ADAMTS-5 were performed at 6 h incubation, while the gene expression analysis for MMP3, MMP13 and COX2 were performed at 24 h incubation.
# (§8) For each compound the maximal concentration tested was dependent on the toxicity results obtained on primary rat chondrocytes.
# (§9) The data analysis, with the normalisation on the amplified values for the 18S was done following the specific instruction of Applied Biosystems for the relative quantification of gene expression.
# IL-6 = assay: Gene expression in rat articular chondrocytes under IL-1β stimulation, IL-6; type: cell-based; details: for IC50: Rattus norvegicus, Chondrocyte, 6 h incubation; for IL-6 gene expression, percentage of inhibitory effect at the highest non toxic concentration: 6 h
# Method: as §1, §2, §3, §4, §5, §6, §7, §8, §9
# COX2 = assay: Gene expression in rat articular chondrocytes under IL-1β stimulation, COX2; type: cell-based; design: key to COX2 gene expression, no effect: ne: no effect
# ADAMTS-5 = assay: Gene expression in rat articular chondrocytes under IL-1β stimulation, ADAMTS-5; type: cell-based; details: for ADAMTS-5 gene expression, percentage of inhibitory effect at the highest non toxic concentration: 6 h
# Method: as §1, §2, §3, §4, §5, §6, §7, §8, §9
# MMP3 = assay: Gene expression in rat articular chondrocytes under IL-1β stimulation, MMP3; type: cell-based; design: key to MMP3 gene expression, no effect: ne: no effect; details: for MMP3 gene expression, no effect / MMP3 gene expression, percentage of inhibitory effect at the highest non toxic concentration: 24 h; for IC50: Rattus norvegicus, Chondrocyte, 24 h incubation
# Method: as §1, §2, §3, §4, §5, §6, §7, §8, §9
# MMP13 = assay: Gene expression in rat articular chondrocytes under IL-1β stimulation, MMP13; type: cell-based; design: key to MMP13 gene expression, no effect: ne: no effect; details: for IC50: Rattus norvegicus, Chondrocyte, 24 h incubation
# Method: as §1, §2, §3, §4, §5, §6, §7, §8, §9
# [1] = test system: bovine nasal septum cartilage; assay: Inhibition of cartilage degradation (GAG release) induced by IL-1α in a bovine in vitro model; type: cell-based; design: key to Bovine cartilage degradation induced by IL-1α, no effect: ne: no effect
# Method: Nasal septum cartilage was collected from an eight months-old male bovine in a local slaughterhouse.
# Tissue was sprayed with ethanol 70% and immediately put in sterile PBS with Antibiotic-Antimycotic stabilized solution (PBS-AASS). It was cut in order to obtain small punches (diameter 2 mm, 1 mm-thick). washed with sterile PBS-AASS, the slices were transferred in a 96X well plate (one piece per well) in DMEM 10%+AASS. 48 h later the cartilage was stimulated in white DMEM+0.1% BSA+AASS with IL-1α […] in the absence or presence of the studied compounds.
# The compounds concentration used in this analysis was chosen depending on the toxicity results obtained in rat primary chondrocytes at 48 h of incubation.
# After 48 h stimulation, the culture medium was collected and stored at −80° C. The cartilage punches were digested with papain at 65° C. for 2 h in phosphate buffer (0.05M pH 6.5 with 2 mM N-acetil-L-cisteine and 2 mM EDTA).
# The glycosaminoglycan (GAG) determination was done by a colorimetric assay with 1,9 dimethyl methylene blue (DMB).
# Digested cartilage samples were diluted in PBS-BSA 1%. To 100 μl of diluted samples or standard we added 100 μl DMB 2X. After 5-20 min incubation the samples were read at 590 nm (Titertek Multiscan Plus).
# The cartilage degradation induced by IL-1α was expressed as: GAG (medium)/total GAG (medium+cartilage)×100
# [2] = test system: rat primary articular chondrocytes; assay: Toxicity analysis (MTT) in rat primary chondrocytes; details: for First toxic concentration at 24 h: rat primary chondrocytes
# Method: Purified chondrocytes were resuspended in DMEM glutaMAX 10% and plated in a 96X well plate for toxicity analysis and in a 6X well plate for gene expression analysis.
# For toxicity analysis cells were then treated with the different compounds for 24 and 48 h. At the end of the incubation time, the medium was removed and was substituted with a mixture 10:1 of DMEM glutaMAX 10%—MTT (2 mg/ml) for 1 h at 37° C. in the cell incubator. After this incubation, the precipitated salt was dissolved with 100 μl of DMSO and the plate was read at 540 nm. The toxicity analysis were performed to decide the maximal non toxic concentration of each compound used in the gene expression assay.
# [3] = Bos taurus, read-out: Bovine cartilage degradation induced by IL-1α, % inhibitory effect at max concentration
# Fyn, sequence (P06241 whole entry): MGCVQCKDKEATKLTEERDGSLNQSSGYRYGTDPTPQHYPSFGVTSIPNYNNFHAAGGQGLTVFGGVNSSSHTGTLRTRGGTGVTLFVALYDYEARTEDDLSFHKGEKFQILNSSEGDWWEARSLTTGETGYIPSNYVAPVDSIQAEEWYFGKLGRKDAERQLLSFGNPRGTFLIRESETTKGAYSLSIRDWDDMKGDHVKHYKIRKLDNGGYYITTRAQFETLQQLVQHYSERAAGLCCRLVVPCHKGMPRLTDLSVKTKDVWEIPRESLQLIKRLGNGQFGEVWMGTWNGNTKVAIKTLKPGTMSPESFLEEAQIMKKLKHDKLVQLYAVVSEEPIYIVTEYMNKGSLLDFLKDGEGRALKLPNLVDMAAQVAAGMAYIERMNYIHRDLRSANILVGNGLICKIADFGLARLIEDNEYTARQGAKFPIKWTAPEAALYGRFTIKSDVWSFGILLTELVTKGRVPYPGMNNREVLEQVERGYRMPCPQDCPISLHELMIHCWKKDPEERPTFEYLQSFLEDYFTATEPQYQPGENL
SMILES,IC50 (Fyn) [nM],IC50 (VEGFR2) [nM],IC50 (MMP3) [nM],IC50 (NF-kB) [nM],First toxic concentration at 48 h in rat primary chondrocytes [2] [µM],First toxic concentration at 24 h [2] [µM],"COX2 gene expression, percentage of inhibitory effect at the highest non toxic concentration (COX2; 10 μM, 24 h)","ADAMTS-5 gene expression, percentage of inhibitory effect at the highest non toxic concentration (ADAMTS-5; 10 μM)",also measured
"Cc1nc(C(=O)Nc2ccc(C)c(CCc3cc(Nc4cnccn4)[nH]n3)c2)c(C(F)(F)F)o1 [Compound 6, 2-methyl-N-(4-methyl-3-(2-(5-(pyrazin-2-ylamino)-1H-pyrazol-3-yl)ethyl)phenyl)-5-(trifluoromethyl)oxazole-4-carboxamide]",112,< 10,,2670,3,3,,,"IL-1β gene expression, percentage of inhibitory effect at the highest non toxic concentration (IL-1β; 1 μM): 1 μM 50%; IC50 (IL-6): 640 nM; COX2 gene expression, no effect (COX2; 24 h): ne; ADAMTS-5 gene expression, percentage of inhibitory effect at the highest non toxic concentration (ADAMTS-5; 1 μM): 1 μM 28%; MMP3 gene expression, no effect (MMP3): ne; MMP13 gene expression, no effect (MMP13; 24 h): ne; Bovine cartilage degradation induced by IL-1α, no effect [1]: ne"
"CC(C)(C#N)c1cc(C(=O)Nc2ccc(F)c(CCc3cc(Nc4cnccn4)[nH]n3)c2)ccn1 [Compound 11, 2-(2-cyanopropan-2-yl)-N-(4-fluoro-3-(2-(5-(pyrazin-2-ylamino)-1H-pyrazol-3-yl)ethyl)phenyl)isonicotinamide]",21,< 10,2200,785,>10,>10,10 μM 100%,10 μM 100%,"IL-1β gene expression, percentage of inhibitory effect at the highest non toxic concentration (IL-1β; 10 μM): 10 μM 100%; IL-6 gene expression, percentage of inhibitory effect at the highest non toxic concentration (IL-6; 10 μM): 10 μM 100%; IC50 (MMP13): 2400 nM; inhibition at 10 µM [1, 3]: 89%"
"Cc1cnc(Nc2cc(CCc3cc(NC(=O)c4cccc(C(F)(F)F)c4)ccc3F)n[nH]2)c(C)n1 [Compound 14, N-(3-(2-(5-((3,5-dimethylpyrazin-2-yl)amino)-1H-pyrazol-3-yl)ethyl)-4-fluorophenyl)-3-(trifluoromethyl)benzamide]",31,10,,487,10,10,,,"IL-1β gene expression, percentage of inhibitory effect at the highest non toxic concentration (IL-1β; 3 μM): 3 μM 99%; IL-6 gene expression, percentage of inhibitory effect at the highest non toxic concentration (IL-6; 3 μM): 3 μM 100%; COX2 gene expression, percentage of inhibitory effect at the highest non toxic concentration (COX2; 3 μM, 24 h): 3 μM 100%; ADAMTS-5 gene expression, percentage of inhibitory effect at the highest non toxic concentration (ADAMTS-5; 3 μM): 3 μM 99%; MMP3 gene expression, percentage of inhibitory effect at the highest non toxic concentration (MMP3; 3 μM): 3 μM 95%; MMP13 gene expression, percentage of inhibitory effect at the highest non toxic concentration (MMP13; 3 μM, 24 h): 3 μM 99%; inhibition at 3 µM [1, 3]: 97%"

# Second part, led by results:
IC50 (Fyn) [nM],IC50 (VEGFR2) [nM],IC50 (MMP3) [nM],SMILES,IC50 (NF-kB) [nM],First toxic concentration at 48 h in rat primary chondrocytes [2] [µM],First toxic concentration at 24 h [2] [µM],"COX2 gene expression, percentage of inhibitory effect at the highest non toxic concentration (COX2; 10 μM, 24 h)","ADAMTS-5 gene expression, percentage of inhibitory effect at the highest non toxic concentration (ADAMTS-5; 10 μM)",also measured
24,< 10,,"CS(=O)(=O)c1cccc(C(=O)Nc2ccc(F)c(CCc3cc(Nc4cnccn4)[nH]n3)c2)c1 [Compound 12, N-(4-fluoro-3-(2-(5-(pyrazin-2-ylamino)-1H-pyrazol-3-yl)ethyl)phenyl)-3-(methylsulfonyl)benzamide]",4510,10,>10,10 μM 63%,10 μM 57%,"IC50 (IL-1β): 3900 nM; IC50 (IL-6): 2600 nM; MMP3 gene expression, no effect (MMP3): ne; MMP13 gene expression, percentage of inhibitory effect at the highest non toxic concentration (MMP13; 10 μM, 24 h): 10 μM 34%; Bovine cartilage degradation induced by IL-1α, no effect [1]: ne"
26,< 10,300,"O=C(Nc1ccc(F)c(CCc2cc(Nc3cnccn3)[nH]n2)c1)c1cccc(C(F)(F)F)c1 [Compound 13, N-(4-fluoro-3-(2-(5-(pyrazin-2-ylamino)-1H-pyrazol-3-yl)ethyl)phenyl)-3-(trifluoromethyl) benzamide]",308,3,3,,,"IL-1β gene expression, percentage of inhibitory effect at the highest non toxic concentration (IL-1β; 1 μM): 1 μM 96%; IL-6 gene expression, percentage of inhibitory effect at the highest non toxic concentration (IL-6; 1 μM): 1 μM 100%; COX2 gene expression, percentage of inhibitory effect at the highest non toxic concentration (COX2; 1 μM, 24 h): 1 μM 96%; ADAMTS-5 gene expression, percentage of inhibitory effect at the highest non toxic concentration (ADAMTS-5; 1 μM): 1 μM 88%; MMP13 gene expression, percentage of inhibitory effect at the highest non toxic concentration (MMP13; 1 μM, 24 h): 1 μM 94%; inhibition at 1 µM ([1]; Bos taurus, 1 μM, read-out: Bovine cartilage degradation induced by IL-1α, % inhibitory effect at max concentration): 97%; Inhibitory effect on the GAG release ([1]; at max concentration): 95-100%"
8,< 10,,"CCN1Cc2cnc(Nc3cc(CCc4cc(NC(=O)c5cccc(C(F)(F)F)c5)ccc4C)n[nH]3)cc2C1 [Compound 17, N-(3-(2-(5-((2-ethyl-2,3-dihydro-1H-pyrrolo[3,4-c]pyridin-6-yl)amino)-1H-pyrazol-3-yl)ethyl)-4-methylphenyl) -3-(trifluoromethyl)benzamide]",352,>10,>10,10 μM 96%,10 μM 62%,"IL-1β gene expression, percentage of inhibitory effect at the highest non toxic concentration (IL-1β; 10 μM): 10 μM 99%; IL-6 gene expression, percentage of inhibitory effect at the highest non toxic concentration (IL-6; 10 μM): 10 μM 100%; MMP3 gene expression, percentage of inhibitory effect at the highest non toxic concentration (MMP3; 10 μM): 10 μM 92%; MMP13 gene expression, percentage of inhibitory effect at the highest non toxic concentration (MMP13; 10 μM, 24 h): 10 μM 100%; inhibition at 10 µM [1, 3]: 100%"
69,110,600,"Cc1ccc(NC(=O)c2cccc(C(F)(F)F)c2)cc1CCc1cc(NC(=O)c2ccc(F)cc2)[nH]n1 [Compound 19, N-(3-(2-(3-(4-fluorobenzamido)-1H-pyrazol-5-yl)ethyl)-4-methylphenyl)-3-(trifluoromethyl)benzamide]",883,10,10,,,"IC50 (IL-1β): 100 nM; IL-6 gene expression, percentage of inhibitory effect at the highest non toxic concentration (IL-6; 3 μM): 3 μM 99%; IC50 (COX2; Rattus norvegicus, Chondrocyte, 24 h incubation): 400 nM; IC50 (ADAMTS-5; Rattus norvegicus, Chondrocyte, 6 h incubation): 100 nM; IC50 (MMP13): 500 nM; inhibition at 3 µM [1, 3]: 83%"
